The record followed here is patent US20120197004A1, “NOVEL ANTI-MICROBIAL PEPTIDOMIMETIC COMPOUNDS AND METHODS TO CALCULATE ANTI-MICROBIAL ACTIVITY” (priority 2006, published 2012).

In brackets after ≈: the same amount, converted by molar mass. Like-named read-outs stand apart in the source and are kept apart here. Where a SMILES comes first, the peptide text is derived from it. [ ]: non-standard residue; d: D form. ξ: configuration not given here. Oic = O=C(O)[C@@H]1C[C@@H]2CCCC[C@@H]2N1; Tic = O=C(O)[C@@H]1Cc2ccccc2CN1; ξTic = O=C(O)C1Cc2ccccc2CN1; ξOic = O=C(O)C1CC2CCCCC2N1; Dab = NCC[C@H](N)C(=O)O; Ahx = NCCCCCC(=O)O; GABA = NCCCC(=O)O; βAla = NCCC(=O)O Bounds are passed on as bounds.

Data set [1] concerns Staphylococcus aureus Methicillin/Gentamicin/Tetracycline Resistant (ATCC 33592). The following applies: in vitro MIC; tested at 100, 30, 10, 3, 1, 0.3 and 0.1 μM in 1% DMSO.
In data set [2] the test system is Mycobacterium ranae (ATCC 110). The following applies: ATCC 110.
For data set [3], the system named is F. tularensis SCHU-S4. The following applies: in vitro MIC.
The test system of data set [4] is Bacillus anthracis Ames. The following applies: in vitro MIC.
In data set [5] the test system is B. melitensis 16M. The following applies: in vitro MIC.
In data set [6] the test system is Plague CO92. The following applies: in vitro MIC.
Data set [7] in a line: in vitro. The following applies: human, microsomes, pH 7.4.
The nature of data set [8]: in vitro. The following applies: monkey, microsomes, pH 7.4.
Data set [9] in a line: in vitro. The following applies: dog, microsomes, pH 7.4.
Data set [10] is described as follows: in vitro. The following applies: rat, microsomes, pH 7.4.
Data set [11] is described as follows: in vitro. The following applies: mouse, microsomes, pH 7.4.
In data set [12] the test system is Salmonella typhimurium (ATCC 13311). The following applies: ATCC 13311.
Data set [13] deals with Bacillus subtillis (ATCC 43223). The following applies: ATCC 43223.
Data set [14] relates to red blood cells.

Consider `CC(=O)NCC(=O)N[C@@H](Cc1ccccc1)C(=O)N1Cc2ccccc2CC1C(=O)N1C(C(=O)NCC(=O)N[C@@H](CCCCN)C(=O)N2Cc3ccccc3CC2C(=O)N2C(C(=O)NCC(=O)N[C@@H](Cc3ccccc3)C(=O)N3Cc4ccccc4CC3C(=O)N3C(C(=O)NCC(=O)N[C@@H](CCCCN)C(=O)N4Cc5ccccc5CC4C(=O)NCCCC(=O)N[C@@H](CCCCN)C(=O)N[C@@H](CCCCN)C(=O)N[C@@H](CCCCN)C(=O)N[C@@H](CCCCN)C(N)=O)CC4CCCCC43)CC3CCCCC32)CC2CCCCC21` (stereo partly drawn) [FKAB-1G-Gaba, Ac-GF-Tic-Oic-GK-Tic-Oic-GF-Tic-Oic-GK-Tic-Gaba-KKKK-CONH2] (Ac-GF[ξTic][ξOic]GK[ξTic][ξOic]GF[ξTic][ξOic]GK[ξTic][GABA]KKKK-NH2), for which, in data set [1], the “Minimum Inhibitory Concentration Staphylococcus aureus ME/GM/TC resistant” value is 10 µM. Also, the “Minimum Inhibitory Concentration Mycobacterium ranae” value in data set [2] stood at 3 µM. For the same compound, the “Minimum Inhibitory Concentration F. tularensis SCHU-S4” value in data set [3] is above 500 µg/mL. For the same compound, in [4] (listed as 53), the “Minimum Inhibitory Concentration Bacillus anthracis Ames” value was found to be 0.98 µg/mL. Also, in data set [5], the “Minimum Inhibitory Concentration B. melitensis 16M” value is above 500 µg/mL. Further, the “Minimum Inhibitory Concentration Plague CO92” value in data set [6] (listed as 53) turned out to be 31.25 µg/mL. Besides, the fraction remaining at 0.25 h, 1 μM in data set [7] is 118%; in data set [8] it was 117%; in [10] it was 113%; in data set [11], 88%. For the same compound, the fraction remaining at 0.5 h, 1 μM worked out at 120% in [8], 80% in data set [9], 72% in [10] and 71% in data set [11]. Also, the results for the amount remaining at 1 h, 1 μM in [9], in data set [10] and in data set [11] were 86%, 104% and 66%, respectively.
For `CC(=O)NCC(=O)N[C@@H](Cc1ccccc1)C(=O)N1Cc2ccccc2CC1C(=O)N1C(C(=O)NCC(=O)N[C@@H](CCN)C(=O)N2Cc3ccccc3CC2C(=O)N2C(C(=O)NCC(=O)N[C@@H](Cc3ccccc3)C(=O)N3Cc4ccccc4CC3C(=O)N3C(C(=O)NCC(=O)N[C@@H](CCN)C(=O)N4Cc5ccccc5CC4C(=O)N[C@@H](CCN)C(=O)N[C@@H](CCN)C(=O)N[C@@H](CCN)C(=O)N[C@@H](CCN)C(N)=O)CC4CCCCC43)CC3CCCCC32)CC2CCCCC21` (stereo partly drawn) [FKAB-1Gz, Ac-GF-Tic-Oic-G-Dab-Tic-Oic-GF-Tic-Oic-G-Dab-Tic-Dab-Dab-Dab-Dab-CONH2] (Ac-GF[ξTic][ξOic]G[Dab][ξTic][ξOic]GF[ξTic][ξOic]G[Dab][ξTic][Dab][Dab][Dab][Dab]-NH2), the “Minimum Inhibitory Concentration Staphylococcus aureus ME/GM/TC resistant” value in [1] came to 10 µM. Further, in data set [2], the “Minimum Inhibitory Concentration Mycobacterium ranae” value was 10 µM. Also, the “Minimum Inhibitory Concentration F. tularensis SCHU-S4” value in data set [3] is 125 µg/mL. The “Minimum Inhibitory Concentration Bacillus anthracis Ames” value in data set [4] (listed as 55) is 0.98 µg/mL. Moreover, in [5], the “Minimum Inhibitory Concentration B. melitensis 16M” value was above 500 µg/mL. Also, in data set [6] (listed as 55), the “Minimum Inhibitory Concentration Plague CO92” value was determined as 15.6 µg/mL. Moreover, the fraction remaining at 0.5 h, 1 μM in [8] came to 119%; in data set [10] it was 7%; in data set [11] it was 29%. Besides, the results for the fraction remaining at 1 h, 1 μM in [9], in data set [10] and in data set [11] were 3%, 80% and 42%, respectively. Besides, the figures for the fraction remaining at 0.25 h, 1 μM in data set [10] and in data set [11] were 21% and 74%, respectively.
Consider `CC(=O)NCC(=O)N[C@@H](Cc1ccccc1)C(=O)N1Cc2ccccc2C[C@H]1C(=O)N1[C@H](C(=O)NCC(=O)N[C@@H](CCCCN)C(=O)N2Cc3ccccc3C[C@H]2C(=O)N2[C@H](C(=O)NCC(=O)N[C@@H](Cc3ccccc3)C(=O)N3Cc4ccccc4C[C@H]3C(=O)N3[C@H](C(=O)NCC(=O)N[C@@H](CCCCN)C(=O)N4Cc5ccccc5C[C@H]4C(=O)NCCC(=O)N[C@@H](CCCCN)C(=O)N[C@@H](CCCCN)C(=O)N[C@@H](CCCCN)C(=O)N[C@@H](CCCCN)C(N)=O)C[C@@H]4CCCC[C@@H]43)C[C@@H]3CCCC[C@@H]32)C[C@@H]2CCCC[C@@H]21` [FKAB-1G-βA, Ac-GF-Tic-Oic-GK-Tic-Oic-GF-Tic-Oic-GK-Tic-βAla-KKKK-CONH2] (Ac-GF[Tic][Oic]GK[Tic][Oic]GF[Tic][Oic]GK[Tic][βAla]KKKK-NH2), for which the “Minimum Inhibitory Concentration Staphylococcus aureus ME/GM/TC resistant” value in [1] turned out to be 30 µM. Moreover, the “Minimum Inhibitory Concentration Mycobacterium ranae” value in data set [2] was 10 µM. For the same compound, in [3], the “Minimum Inhibitory Concentration F. tularensis SCHU-S4” value is 250 µg/mL. Besides, in data set [4] (listed as 52), the “Minimum Inhibitory Concentration Bacillus anthracis Ames” value is 1.95 µg/mL. Moreover, the “Minimum Inhibitory Concentration B. melitensis 16M” value in data set [5] was above 500 µg/mL. The “Minimum Inhibitory Concentration Plague CO92” value in data set [6] (listed as 52) came out at 31.25 µg/mL. In addition, in data set [9], the share remaining at 0.5 h, 1 μM came to 66% and the fraction remaining at 1 h, 1 μM was determined as 105%. For the same compound, in data set [10], the amount remaining at 0.25 h, 1 μM was determined as 118% and the share remaining at 1 h, 1 μM stood at 44%. The fraction remaining at 0.25 h, 1 μM in [11] was 11%.
`CC(=O)NCC(=O)N[C@@H](Cc1ccccc1)C(=O)N1Cc2ccccc2CC1C(=O)N1C(C(=O)NCC(=O)N[C@@H](CCCCN)C(=O)N2Cc3ccccc3CC2C(=O)N2C(C(=O)NCC(=O)N[C@@H](Cc3ccccc3)C(=O)N3Cc4ccccc4CC3C(=O)N3C(C(=O)NCC(=O)N[C@@H](CCCCN)C(=O)N4Cc5ccccc5CC4C(=O)NCCCCCC(=O)N[C@@H](CCCCN)C(=O)N[C@@H](CCCCN)C(=O)N[C@@H](CCCCN)C(=O)N[C@@H](CCCCN)C(N)=O)CC4CCCCC43)CC3CCCCC32)CC2CCCCC21` (stereo partly drawn) [FKAB-1G-Ahx, Ac-GF-Tic-Oic-GK-Tic-Oic-GF-Tic-Oic-GK-Tic-Ahx-KKKK-CONH2] (Ac-GF[ξTic][ξOic]GK[ξTic][ξOic]GF[ξTic][ξOic]GK[ξTic][Ahx]KKKK-NH2): the “Minimum Inhibitory Concentration Staphylococcus aureus ME/GM/TC resistant” value in [1] came to 30 µM. Besides, in data set [2], the “Minimum Inhibitory Concentration Mycobacterium ranae” value was 10 µM. Moreover, the “Minimum Inhibitory Concentration F. tularensis SCHU-S4” value in [3] was 250 µg/mL. Besides, the “Minimum Inhibitory Concentration Bacillus anthracis Ames” value in [4] (listed as 54) stood at 1.95 µg/mL. Further, the “Minimum Inhibitory Concentration B. melitensis 16M” value in [5] was above 500 µg/mL. In addition, the “Minimum Inhibitory Concentration Plague CO92” value in data set [6] (listed as 54) came to 15.6 µg/mL. Moreover, the amount remaining at 0.25 h, 1 μM in data set [7] came out at 112%; in [10], 120%; in data set [11] it was 97%. The figures for the amount remaining at 0.5 h, 1 μM in [9], in data set [10] and in [11] were 79%, 106% and 98%, respectively. Further, the fraction remaining at 1 h, 1 μM came out at 84% in data set [9] and 113% in data set [11].
With `CC(=O)NCC(=O)N[C@@H](Cc1ccccc1)C(=O)N1Cc2ccccc2CC1C(=O)N1C(C(=O)NCC(=O)N[C@@H](Cc2c[nH]c3ccccc23)C(=O)N2Cc3ccccc3CC2C(=O)N2C(C(=O)NCC(=O)N[C@@H](Cc3ccccc3)C(=O)N3Cc4ccccc4CC3C(=O)N3C(C(=O)NCC(=O)N[C@@H](Cc4c[nH]c5ccccc45)C(=O)N4Cc5ccccc5CC4C(=O)N[C@@H](CCCCN)C(=O)N[C@@H](CCCCN)C(=O)N[C@@H](CCCCN)C(=O)N[C@@H](CCCCN)C(N)=O)CC4CCCCC43)CC3CCCCC32)CC2CCCCC21` (stereo partly drawn) [FKAB-1G-Trp, Ac-GF-Tic-Oic-GW-Tic-Oic-GF-Tic-Oic-GW-Tic-KKKK-CONH2] (Ac-GF[ξTic][ξOic]GW[ξTic][ξOic]GF[ξTic][ξOic]GW[ξTic]KKKK-NH2), the “Minimum Inhibitory Concentration Staphylococcus aureus ME/GM/TC resistant” value in [1] came to 30 µM. In [2], the “Minimum Inhibitory Concentration Mycobacterium ranae” value was found to be 100 µM. Besides, the “Minimum Inhibitory Concentration F. tularensis SCHU-S4” value in [3] is above 500 µg/mL. Moreover, the “Minimum Inhibitory Concentration Bacillus anthracis Ames” value in data set [4] (listed as 57) stood at 0.98 µg/mL. Besides, the “Minimum Inhibitory Concentration B. melitensis 16M” value in data set [5] was above 500 µg/mL. Also, in [6] (listed as 57), the “Minimum Inhibitory Concentration Plague CO92” value is above 500 µg/mL. In addition, the fraction remaining at 0.25 h, 1 μM stood at 112% in data set [7], 0% in data set [8] and 54% in data set [11]. The share remaining at 0.5 h, 1 μM turned out to be 0% in data set [8], 116% in [9], 84% in data set [10] and 81% in [11]. Also, the values for the share remaining at 1 h, 1 μM in data set [8], in data set [10] and in [11] were 0%, 0% and 106%, respectively.
In the case of `CC(=O)NCC(=O)N[C@@H](Cc1ccccc1)C(=O)N1Cc2ccccc2CC1C(=O)NCC(=O)N[C@@H](CCCCN)C(=O)N1Cc2ccccc2CC1C(=O)NCC(=O)N[C@@H](Cc1ccccc1)C(=O)N1Cc2ccccc2CC1C(=O)NCC(=O)N[C@@H](CCCCN)C(=O)N1Cc2ccccc2CC1C(=O)N[C@@H](CCCCN)C(=O)N[C@@H](CCCCN)C(=O)N[C@@H](CCCCN)C(=O)N[C@@H](CCCCN)C(N)=O` (stereo partly drawn) [FKAB-1Gg, Ac-GF-Tic-GK-Tic-GF-Tic-GK-Tic-KKKK-CONH2] (Ac-GF[ξTic]GK[ξTic]GF[ξTic]GK[ξTic]KKKK-NH2), the “MIC Salmonella typhimurium” value in [12] was 100 µM (≈ 199 µg/mL). In addition, the “MIC Mycobacterium ranae” value in data set [2] was determined as 30.00 µM (≈ 59.6 µg/mL). Also, the “MIC Bacillus Subtillis” value in data set [13] was found to be 10.00 µM (≈ 19.9 µg/mL). The “% hemolysis 100/25 μM (first value)” value in [14] (100 μM) was found to be 6%. In data set [14] (25), the “% hemolysis 100/25 μM (second value)” value worked out at 4.9%. The “Minimum Inhibitory Concentration F. tularensis SCHU-S4” value in data set [3] worked out at 250 µg/mL. Besides, the “Minimum Inhibitory Concentration Bacillus anthracis Ames” value in data set [4] (listed as 34) came out at 0.98 µg/mL. For the same compound, the “Minimum Inhibitory Concentration B. melitensis 16M” value in data set [5] was above 500 µg/mL. Further, the “Minimum Inhibitory Concentration Plague CO92” value in [6] (listed as 34) came out at 31.25 µg/mL.
